{
  "source": "paper PMC2885673",
  "about": "“Interaction of triosephosphate isomerase from the cell surface of Staphylococcus aureus and α-(1→3)-mannooligosaccharides derived from glucuronoxylomannan of Cryptococcus neoformans” (Microbiology, 2009)",
  "key": {"[1]": {"biological_target": "T1, triosephosphate isomerase (TPI) from S. aureus (Staphylococcus aureus, UniProt Q2G030)", "T1 construct": "gene tpiA; native, purified from LiCl surface protein extract; 253 amino acids (homology model); amine-coupled to CM5 chip for SPR", "T1 sequence (Q2G030 whole entry)": "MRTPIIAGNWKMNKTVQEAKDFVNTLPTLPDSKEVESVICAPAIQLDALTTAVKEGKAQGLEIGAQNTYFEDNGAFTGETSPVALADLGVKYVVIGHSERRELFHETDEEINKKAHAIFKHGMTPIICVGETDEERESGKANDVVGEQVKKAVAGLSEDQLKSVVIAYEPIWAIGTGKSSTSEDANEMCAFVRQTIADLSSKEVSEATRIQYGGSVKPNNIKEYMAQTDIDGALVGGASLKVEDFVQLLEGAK", "assay": "SPR (Biacore […]), TPI immobilized, heterogeneous ligand-parallel reaction fit", "format": "binding", "details": "HBS-EP pH 7.4, 150 mM NaCl, 3 mM EDTA; second site of a two-site fit (stronger site)"}, "[2]": {"biological_target": "T1, triosephosphate isomerase (TPI) from S. aureus", "assay": "coupled NADH / glycerol-3-phosphate dehydrogenase assay, A340", "format": "biochemical", "details": "0.45 mM DL-glyceraldehyde 3-phosphate; S. aureus surface protein extract per the assay description"}},
  "data": [
    {"smiles": "OC[C@H]1O[C@H](O[C@H]2[C@H](O)[C@@H](CO)OC(O)[C@H]2O)[C@@H](O)[C@@H](O)[C@@H]1O", "note": "(stereo partly shown) [M2, mannobiose]", "values": [
      {"measurement": "Heterogeneous ligand-parallel reaction / Kd2", "setting": "[1]", "value": 5.37, "unit": "µM"}
    ]},
    {"smiles": "OC[C@H]1O[C@H](O[C@@H]2[C@H](O)[C@@H](O[C@@H]3[C@H](O)[C@@H](O[C@@H]4[C@H](O)[C@@H](O[C@H]5[C@H](O)[C@@H](CO)OC(O)[C@H]5O)O[C@H](CO)[C@H]4O)O[C@H](CO)[C@H]3O)O[C@H](CO)[C@H]2O)[C@@H](O)[C@@H](O)[C@@H]1O", "note": "(stereo partly shown) [M5, mannopentaose]", "values": [
      {"measurement": "inhibition of TPI activity at 100 μM", "setting": "[2]", "value": "dose-dependent inhibition was observed with mannotriose, mannotetraose and mannopentaose"},
      {"measurement": "Heterogeneous ligand-parallel reaction / Kd2", "setting": "[1]", "value": 18.6, "unit": "µM"}
    ]},
    {"smiles": "OC[C@H]1O[C@H](O[C@@H]2[C@H](O)[C@@H](O[C@@H]3[C@H](O)[C@@H](O[C@H]4[C@H](O)[C@@H](CO)OC(O)[C@H]4O)O[C@H](CO)[C@H]3O)O[C@H](CO)[C@H]2O)[C@@H](O)[C@@H](O)[C@@H]1O", "note": "(stereo partly shown) [M4, mannotetraose]", "values": [
      {"measurement": "inhibition of TPI activity at 100 μM", "setting": "[2]", "value": "dose-dependent inhibition was observed with mannotriose, mannotetraose and mannopentaose"},
      {"measurement": "Heterogeneous ligand-parallel reaction / Kd2", "setting": "[1]", "value": 0.0146, "unit": "µM"}
    ]},
    {"smiles": "OC[C@H]1O[C@H](O[C@@H]2[C@H](O)[C@@H](O[C@H]3[C@H](O)[C@@H](CO)OC(O)[C@H]3O)O[C@H](CO)[C@H]2O)[C@@H](O)[C@@H](O)[C@@H]1O", "note": "(stereo partly shown) [M3, mannotriose]", "values": [
      {"measurement": "inhibition of TPI activity at 100 μM", "setting": "[2]", "value": "dose-dependent inhibition was observed with mannotriose, mannotetraose and mannopentaose"},
      {"measurement": "Heterogeneous ligand-parallel reaction / Kd2", "setting": "[1]", "value": 124, "unit": "µM"}
    ]}
  ]
}
